From patent publication US11033538B2, “Dosing regimens for the treatment of lysosomal storage diseases using pharmacological chaperones” (Amicus Therapeutics, Inc., priority 2007, dated 2021)
Substitutions are numbered along the chain they refer to. Where two headings read alike, the source gives them in different places.

Tests used:
hR301Q GLA = molecular target: T1, hR301Q GLA (Homo sapiens, UniProt P06280, R301Q); assay: Example 12, GLA activity and protein in tissues of hR301Q GLA Tg/KO mice; type: in vivo; details: 4 weeks
T1 construct: from tissue; host or cells: skin, heart, kidney lysates of hR301Q GLA Tg/KO mice
T1 sequence (P06280 32-429 R301Q): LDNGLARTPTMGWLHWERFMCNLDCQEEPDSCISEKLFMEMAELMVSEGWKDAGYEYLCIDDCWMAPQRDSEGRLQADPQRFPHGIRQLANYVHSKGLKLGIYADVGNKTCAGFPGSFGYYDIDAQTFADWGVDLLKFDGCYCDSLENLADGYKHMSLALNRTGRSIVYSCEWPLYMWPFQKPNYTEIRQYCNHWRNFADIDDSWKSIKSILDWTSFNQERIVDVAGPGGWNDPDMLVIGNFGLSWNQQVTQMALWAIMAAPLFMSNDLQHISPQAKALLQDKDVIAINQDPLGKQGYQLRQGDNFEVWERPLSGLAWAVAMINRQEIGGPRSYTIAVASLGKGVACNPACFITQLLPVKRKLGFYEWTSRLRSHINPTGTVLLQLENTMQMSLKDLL
Method: Tissue lysates from skin, heart, and kidney were prepared and tested for GLA activity (using 4-MUG as substrate, expressed in nmol/mg protein/hr), GLA protein (using immunoblotting of […] tissue lysate with anti-human GLA antibody) and GL-3 levels (using LC-MS/MS, expressed in mg/g of tissue weight). […] Each bar represents the mean±SEM of n=7-8 mice/group. Each lane in the Western blots represents one mouse from each group.

GL-3 [1] = assay: Example 15, qualitative GL-3 in glomerular cells; type: in vivo, human; details: 12 months of DGJ
Method: GL-3 changes in podocytes, endothelial cells, and mesangial cells, and glomerular sclerosis, were assessed qualitatively by the same 3 pathologists blinded to treatment/visit.

α-GAL = molecular target: T2, α-GAL (Homo sapiens, UniProt P06280); type: in vivo
T2 construct: α-GAL activity was calculated in white blood cells (WBC); endogenous in cells; host or cells: white blood cells of healthy male volunteers
T2 sequence (P06280 32-429): T1 sequence (P06280 32-429 R301Q) with Q270R
Method: A multiple-dose Phase I trial was conducted and consisted of a total of 16 healthy volunteers divided into two groups of eight subjects. […] All subjects in one group received placebo or 50 mg twice a day for seven days, and all subjects in the other group received placebo or 150 mg twice a day for seven days. Subjects were evaluated at the beginning of the study, on Day 7 after seven days of treatment and on Day 14 after a seven day washout period.
Blood samples (10 mL each) were collected in blood collection tubes containing EDTA and WBC extracted before dosing and at the following times thereafter: 100 hours, 150 hours, and 336 hours. Samples were treated as described above, and WBC α-GAL enzymatic activity levels were determined as described in Desnick, R. J. (ed) Enzyme therapy in genetic diseases. Vol 2. Alan R Liss, New York, pp 17-32. Statistical Analysis. Safety data including laboratory evaluations, physical exams, adverse events, ECG monitoring and vital signs assessments were summarized by treatment group and point of time of collection. Descriptive statistics (arithmetic mean, standard deviation, median, minimum and maximum) were calculated for quantitative safety data as well as for the difference to baseline. Frequency counts were compiled for classification of qualitative safety data. In addition, a shift table describing out of normal range shifts was provided for clinical laboratory results. A normal-abnormal shift table was also presented for physical exam results and ECGs.

GL-3 [2] = assay: Example 11, immunohistochemical staining of GL-3 in hR301Q GLA Tg/KO mice; type: in vivo
Method: Immunohistochemical staining with a monoclonal anti-GL-3 antibody (nuclei counterstained with methyl green) was also performed. […] Data shown are representative pictures from 7-8 mice/group.

In the case of OC[C@H]1NC[C@H](O)[C@@H](O)[C@H]1O [DGJ, (2R,3S,4R,5S)-2-(hydroxymethyl) piperdine-3,4,5-triol], the “GLA activity in skin, heart, kidney” value (hR301Q GLA; 3, 10, 30, 100 or 300 mg/kg/day, p<0.05 vs. untreated) is reported as “significant and dose-dependent increase in GLA activity”, the “GLA protein (immunoblotting)” value (hR301Q GLA; 3-300 mg/kg/day) is reported as “significant and dose-dependent increase” and the “samples with increases in glomerular cell GL-3” value (GL-3 [1]) is reported as “None of the samples had increases”. The “biopsies with decrease in glomerular podocyte GL-3” value (GL-3 [1]; 5 of 23 biopsies) was 22%, the “biopsies with decrease in endothelial cell GL-3” value (GL-3 [1]; 6 of 23 biopsies) was 26% and the “biopsies with decrease in mesangial cell GL-3” value (GL-3 [1]; 11 of 23 biopsies) was 48%. For the same compound, the “inhibition of WBC α-GAL enzymatic activity” value (α-GAL; 50 mg b.i.d. or 150 mg b.i.d.) was “did not inhibit WBC α-GAL enzymatic activity”, the “WBC α-GAL enzymatic activity” value (α-GAL; 50 mg b.i.d., 100 hours) was 120 % pre-dose levels and the “WBC α-GAL enzymatic activity” value (α-GAL; 50 mg b.i.d., 150 hours) was 130 % pre-dose levels. For the same compound, the “WBC α-GAL enzymatic activity” value (α-GAL; 50 mg b.i.d., 336 hours) was 145 % pre-dose levels, the “WBC α-GAL enzymatic activity” value (α-GAL; 150 mg b.i.d., 100 hours) was 150 % pre-dose levels and the “WBC α-GAL enzymatic activity” value (α-GAL; 150 mg b.i.d., 150 hours) was 185 % pre-dose levels. For the same compound, the “WBC α-GAL enzymatic activity” value (α-GAL; 150 mg b.i.d., 336 hours) was 185 % pre-dose levels, the “GLA levels in white blood cell lysates” value (α-GAL; 50 and 150 mg twice daily for 7 days) was “increased GLA levels” and the “increase in levels of α-GAL in white blood cells” value (α-GAL; highest dose level (150 mg twice a day for seven days), healthy volunteers) was roughly 2 fold. The “persistence of the α-GAL increase” value (α-GAL; highest dose level, after the last dose) was “maintained for at least seven days after the last dose”, the “GL-3 signal, less frequent vs daily dosing” value (GL-3 [2]; 300 mg/kg, 4 weeks) was “greater GL-3 reduction was seen in each tissue” and the “GL-3 signal by immunohistochemistry” value (GL-3 [2]; both daily and less frequent treatment, skin, heart, kidney) was “reduced the amount and intensity of GL-3 signal in each tissue”.
